Results published in PubChem BioAssay (NCI).
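Tested at 5 concentrations; 48 h exposure; 96-well plates; endpoints linearly interpolated, else capped at highest concentration. GI50: concentration for 50% inhibition of growth. TGI: total growth inhibition.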

Experiments:
Test in all cases: inhibition of tumour cell growth, NCI panel, 48 h
[1] = system: SK-MEL-5 melanoma
[2] = system: SF-539 CNS
[3] = system: OVCAR-4 ovarian
[4] = system: HCC-2998 colon
[5] = system: SF-295 CNS
[6] = system: SK-MEL-2 melanoma
[7] = system: A549 NSCLC
[8] = system: SK-OV-3 ovarian
[9] = system: COLO 205 colon
[10] = system: HS 578T breast
[11] = system: RPMI-8226 leukemia
[12] = system: DU-145 prostate
[13] = system: HCT-15 colon
[14] = system: OVCAR-3 ovarian
[15] = system: SR leukemia
[16] = system: HOP-92 NSCLC
[17] = system: ACHN renal
[18] = system: MDA-MB-435
[19] = system: LOX IMVI melanoma
[20] = system: SK-MEL-28 melanoma
[21] = system: UACC-257 melanoma
[22] = system: UO-31 renal
[23] = system: SW-620 colon
[24] = system: UACC-62 melanoma
[25] = system: CAKI-1 renal
[26] = system: PC-3 prostate
[27] = system: A498 renal
[28] = system: NCI-H522 lung
[29] = system: SF-268 CNS
[30] = system: BT-549 breast
[31] = system: HL-60(TB) leukemia
[32] = system: U251 CNS
[33] = system: SN12C renal
[34] = system: MOLT-4 leukemia
[35] = system: MDA-MB-231 breast
[36] = system: NCI-H23 lung
[37] = system: 786-0 renal
[38] = system: NCI-H226 lung
[39] = system: M14 melanoma
[40] = system: KM12 colon
[41] = system: SNB-75 CNS
[42] = system: HT29 colon
[43] = system: T-47D breast
[44] = system: OVCAR-8 ovarian
[45] = system: TK-10 renal
[46] = system: SNB-19 CNS
[47] = system: OVCAR-5 ovarian
[48] = system: K-562 leukemia
[49] = system: RXF 393 renal
[50] = system: CCRF-CEM leukemia
[51] = system: NCI/ADR-RES ovarian
[52] = system: HOP-62 NSCLC
[53] = system: NCI-H460 lung
[54] = system: EKVX NSCLC
[55] = system: HCT-116 colon
[56] = system: MALME-3M melanoma
[57] = system: MCF7 breast

For CCOc1ccc2c(c1)C(=O)c1c-2n(CCCBr)c(=O)c2cc([N+](=O)[O-])ccc12, the GI50 [1] was 8.74 µM, the TGI [1] was 25.7 µM and the GI50 [2] was 5.57 µM. For the same compound, the TGI [2] was 40.9 µM, the GI50 [3] was greater than 100 µM and the TGI [3] was greater than 100 µM. For the same compound, the GI50 [4] was 57.7 µM, the TGI [4] was greater than 100 µM and the GI50 [5] was 12.3 µM. The TGI [5] was greater than 100 µM, the GI50 [6] was greater than 100 µM and the TGI [6] was greater than 100 µM. For the same compound, the GI50 [7] was 29 µM, the TGI [7] was greater than 100 µM and the GI50 [8] was 17.6 µM. For the same compound, the TGI [8] was greater than 100 µM, the GI50 [9] was 41.3 µM and the TGI [9] was greater than 100 µM. The GI50 [10] was greater than 100 µM, the TGI [10] was greater than 100 µM and the GI50 [11] was 30.7 µM. For the same compound, the TGI [11] was greater than 100 µM, the GI50 [12] was 4.29 µM and the TGI [12] was greater than 100 µM. For the same compound, the GI50 [13] was 36 µM, the TGI [13] was greater than 100 µM and the GI50 [14] was 23.2 µM. The TGI [14] was greater than 100 µM, the GI50 [15] was 554 nM and the TGI [15] was greater than 100 µM. It also gave a GI50 [16] of 37.1 µM, a TGI [16] greater than 100 µM and a GI50 [17] of 3.76 µM. It also gave a TGI [17] of 69.7 µM, a GI50 [18] of 30.6 µM and a TGI [18] greater than 100 µM. It also gave a GI50 [19] of 5.38 µM, a TGI [19] greater than 100 µM and a GI50 [20] of 88.8 µM. It also gave a TGI [20] greater than 100 µM, a GI50 [21] of 40.9 µM and a TGI [21] of 98.3 µM. The GI50 [22] was 2900 nM, the TGI [22] was 13.6 µM and the GI50 [23] was 4.63 µM. It also gave a TGI [23] greater than 100 µM, a GI50 [24] of 5.73 µM and a TGI [24] greater than 100 µM. The GI50 [25] was 8.15 µM, the TGI [25] was greater than 100 µM and the GI50 [26] was greater than 100 µM. The TGI [26] was greater than 100 µM, the GI50 [27] was 36 µM and the TGI [27] was greater than 100 µM. For the same compound, the GI50 [28] was 5.74 µM, the TGI [28] was 72.8 µM and the GI50 [29] was 5.1 µM. It also gave a TGI [29] greater than 100 µM, a GI50 [30] of 28.8 µM and a TGI [30] greater than 100 µM. The GI50 [31] was 64.5 µM, the TGI [31] was greater than 100 µM and the GI50 [32] was 6.13 µM. The TGI [32] was greater than 100 µM, the GI50 [33] was 11.9 µM and the TGI [33] was greater than 100 µM. The GI50 [34] was 4.18 µM, the TGI [34] was greater than 100 µM and the GI50 [35] was greater than 100 µM. The TGI [35] was greater than 100 µM, the GI50 [36] was 7.14 µM and the TGI [36] was greater than 100 µM. The GI50 [37] was 13.6 µM, the TGI [37] was greater than 100 µM and the GI50 [38] was 5.64 µM. It also gave a TGI [38] greater than 100 µM, a GI50 [39] of 6.58 µM and a TGI [39] greater than 100 µM. For the same compound, the GI50 [40] was 56 µM, the TGI [40] was greater than 100 µM and the GI50 [41] was 33.9 µM. It also gave a TGI [41] greater than 100 µM, a GI50 [42] greater than 100 µM and a TGI [42] greater than 100 µM. It also gave a GI50 [43] of 550 nM, a TGI [43] of 9.12 µM and a GI50 [44] of 4.8 µM. For the same compound, the TGI [44] was greater than 100 µM, the GI50 [45] was greater than 100 µM and the TGI [45] was greater than 100 µM. It also gave a GI50 [46] of 4.75 µM, a TGI [46] greater than 100 µM and a GI50 [47] of 59.4 µM. For the same compound, the TGI [47] was greater than 100 µM, the GI50 [48] was 50.9 µM and the TGI [48] was greater than 100 µM. The GI50 [49] was 37.9 µM, the TGI [49] was greater than 100 µM and the GI50 [50] was 3.74 µM. It also gave a TGI [50] greater than 100 µM, a GI50 [51] of 9.06 µM and a TGI [51] greater than 100 µM. For the same compound, the GI50 [52] was 5.81 µM, the TGI [52] was greater than 100 µM and the GI50 [53] was 1970 nM. For the same compound, the TGI [53] was 91.6 µM, the GI50 [54] was 86.1 µM and the TGI [54] was greater than 100 µM. It also gave a GI50 [55] of 5.98 µM, a TGI [55] greater than 100 µM and a GI50 [56] of 40.7 µM. For the same compound, the TGI [56] was greater than 100 µM, the GI50 [57] was 344 nM and the TGI [57] was 63.8 µM.
